Experimental data reported in PubChem BioAssay (NCI).
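96-well plates; 48 h exposure; 5 concentrations. Endpoints by linear interpolation between flanking doses. Not reached: highest tested concentration assigned. TGI: total growth inhibition.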

Legend:
Assay in all cases: NCI anticancer screen, dose series, 48 h
[1] = system: MDA-MB-435
[2] = system: IGROV1 ovarian
[3] = system: 786-0 renal
[4] = system: KM12 colon
[5] = system: SN12C renal
[6] = system: HT29 colon
[7] = system: SK-MEL-28 melanoma
[8] = system: A549 NSCLC
[9] = system: SF-268 CNS
[10] = system: DU-145 prostate
[11] = system: MALME-3M melanoma
[12] = system: NCI-H23 lung
[13] = system: SF-295 CNS
[14] = system: OVCAR-4 ovarian
[15] = system: MCF7 breast
[16] = system: SF-539 CNS
[17] = system: HS 578T breast
[18] = system: NCI-H460 lung
[19] = system: BT-549 breast
[20] = system: OVCAR-8 ovarian
[21] = system: CCRF-CEM leukemia
[22] = system: COLO 205 colon
[23] = system: HCT-116 colon
[24] = system: MDA-N
[25] = system: MDA-MB-231 breast
[26] = system: CAKI-1 renal
[27] = system: LOX IMVI melanoma
[28] = system: A498 renal
[29] = system: OVCAR-3 ovarian
[30] = system: RXF 393 renal
[31] = system: SK-OV-3 ovarian
[32] = system: HL-60(TB) leukemia
[33] = system: HOP-62 NSCLC
[34] = system: K-562 leukemia
[35] = system: RPMI-8226 leukemia
[36] = system: UO-31 renal
[37] = system: SR leukemia
[38] = system: SW-620 colon
[39] = system: HCC-2998 colon
[40] = system: NCI-H522 lung
[41] = system: M14 melanoma
[42] = system: NCI/ADR-RES ovarian
[43] = system: MOLT-4 leukemia
[44] = system: UACC-62 melanoma
[45] = system: NCI-H226 lung
[46] = system: SNB-75 CNS
[47] = system: SK-MEL-2 melanoma
[48] = system: UACC-257 melanoma
[49] = system: HOP-92 NSCLC
[50] = system: OVCAR-5 ovarian
[51] = system: PC-3 prostate
[52] = system: SK-MEL-5 melanoma
[53] = system: T-47D breast
[54] = system: TK-10 renal
[55] = system: SNB-19 CNS
[56] = system: ACHN renal
[57] = system: U251 CNS
[58] = system: HCT-15 colon
[59] = system: EKVX NSCLC
[60] = system: KM20L2 colon
[61] = system: DMS 273 small cell lung
[62] = system: LXFL 529 NSCLC
[63] = system: M19-MEL melanoma
[64] = system: HOP-18 NSCLC
[65] = system: DMS 114 small cell lung
[66] = system: SNB-78 CNS

## CCCCCCCCCCCCCCCCCCNc1ccn(C2OC(COP(=O)(O)OCC3OC(n4cc(F)c(NCCCCCCCCCCCCCCCCCC)nc4=O)CC3O)C(O)C2O)c(=O)n1 (stereo not drawn)
[1]
  TGI: > 100 µM
[2]
  TGI: > 100 µM
[3]
  TGI: > 100 µM
[4]
  TGI: > 100 µM
[5]
  TGI: > 100 µM
[6]
  TGI: > 100 µM
[7]
  TGI: > 100 µM
[8]
  TGI: > 100 µM
[9]
  TGI: > 100 µM
[10]
  TGI: > 100 µM
[11]
  TGI: > 100 µM
[12]
  TGI: > 100 µM
[13]
  TGI: > 100 µM
[14]
  TGI: > 100 µM
[15]
  TGI: > 100 µM
[16]
  TGI: > 100 µM
[17]
  TGI: > 100 µM
[18]
  TGI: > 100 µM
[19]
  TGI: > 100 µM
[20]
  TGI: > 100 µM
[21]
  TGI: > 100 µM
[22]
  TGI: > 100 µM
[23]
  TGI: > 100 µM
[24]
  TGI: > 100 µM
[25]
  TGI: > 100 µM
[26]
  TGI: > 100 µM
[27]
  TGI: > 100 µM
[28]
  TGI: > 100 µM
[29]
  TGI: > 100 µM
[30]
  TGI: > 100 µM
[31]
  TGI: > 100 µM
[32]
  TGI: > 100 µM
[33]
  TGI: > 100 µM
[34]
  TGI: > 100 µM
[35]
  TGI: > 100 µM
[36]
  TGI: > 100 µM
[37]
  TGI: > 100 µM
[38]
  TGI: > 100 µM
[39]
  TGI: > 100 µM
[40]
  TGI: > 100 µM
[41]
  TGI: > 100 µM
[42]
  TGI: > 100 µM
[43]
  TGI: > 100 µM
[44]
  TGI: > 100 µM
[45]
  TGI: > 100 µM
[46]
  TGI: > 100 µM
[47]
  TGI: > 100 µM
[48]
  TGI: > 100 µM
[49]
  TGI: > 100 µM
[50]
  TGI: > 100 µM
[51]
  TGI: > 100 µM
[52]
  TGI: > 100 µM
[53]
  TGI: > 100 µM
[54]
  TGI: > 100 µM
[55]
  TGI: > 100 µM
[56]
  TGI: > 100 µM
[57]
  TGI: > 100 µM
[58]
  TGI: > 100 µM
[59]
  TGI: > 100 µM

## COc1cc2c(cc1OC)C(Cl)C(c1ccc(Cl)c(Cl)c1)=C2Cl (stereo not drawn)
[2]
  TGI: 28.9 µM
[60]
  TGI: 25.7 µM
[5]
  TGI: 26.5 µM
[6]
  TGI: 12.2 µM
[7]
  TGI: 32.7 µM
[11]
  TGI: 40.8 µM
[12]
  TGI: > 100 µM
[13]
  TGI: 22 µM
[16]
  TGI: 22.2 µM
[18]
  TGI: 16 µM
[61]
  TGI: 14.7 µM
[20]
  TGI: 19.5 µM
[21]
  TGI: 16.7 µM
[22]
  TGI: 28 µM
[26]
  TGI: 25.1 µM
[27]
  TGI: 5.75 µM
[28]
  TGI: 34 µM
[29]
  TGI: 15.2 µM
[31]
  TGI: 40.5 µM
[32]
  TGI: 9.47 µM
[62]
  TGI: 17.2 µM
[34]
  TGI: > 100 µM
[35]
  TGI: 12.8 µM
[36]
  TGI: 24.8 µM
[38]
  TGI: 20 µM
[40]
  TGI: > 100 µM
[63]
  TGI: 32.2 µM
[64]
  TGI: 37 µM
[41]
  TGI: 50.1 µM
[65]
  TGI: 15.9 µM
[43]
  TGI: 12.3 µM
[44]
  TGI: 18.7 µM
[45]
  TGI: 23.9 µM
[46]
  TGI: 23.9 µM
[47]
  TGI: 21.3 µM
[49]
  TGI: 15.1 µM
[52]
  TGI: 19.8 µM
[54]
  TGI: 48.7 µM
[55]
  TGI: 41.8 µM
[56]
  TGI: 21.8 µM
[57]
  TGI: 16.4 µM
[58]
  TGI: 12.6 µM
[66]
  TGI: 33.7 µM
[59]
  TGI: 44.7 µM
